In patent US20100286098A1, “USE OF TETRAHYDROCANNABINOL AND/OR CANNABIDIOL FOR THE TREATMENT OF INFLAMMATORY BOWEL DISEASE” (GW Pharma Limited, priority 2007, published 2010):

Columns and labels:
Type in all cases: in vivo, rat
[1] = test system: TNBS (trinitrobenzenesulfonic acid) model of colitis; assay: TNBS model of colitis, macroscopic damage score (MDS); conditions: for MDS, mean: 72 h after TNBS, 0-13 scale
Protocol: (§1) In this example, the TNBS (trinitrobenzenesulfonic acid) model of colitis was used to characterize the effects of CBD alone, THC alone and a combination of CBD and THC (in two different ratios) on inflammation and in vitro motility and secretory parameters.
(§2) Colitis was evoked in male Wistar rats by intra-colonic administration of 6.7 mg TNBS in 0.25 ml 25% ethanol. The degree of inflammation was quantified using a macroscopic damage score (MDS, 0-13 scale) and myeloperoxidase (MPO) activity.
(§3) CBD was used at doses of 5, 10, 15 and 20 mg/kg. THC was used at doses of 5, 10 and 20 mg/kg. In addition THC at doses of 5 and 10 mg/kg was administered in combination with CBD at a dose of 10 mg/kg.
(§4) Doses were administered i.p., once daily starting 0.5 hour before TNBS administration and animals (n=6-11 per group) were sacrificed 72 hours after colitis induction.

[2] = test system: myeloperoxidase (MPO) activity; assay: TNBS model of colitis, myeloperoxidase (MPO) activity; conditions: for MPO, mean: 72 h after TNBS
Protocol: as §1, §2, §3, §4

[3] = test system: mucosa-submucosa preparations; assay: Ussing chamber, secretory response evoked by veratridine (nerve stimulation), TNBS colitis rats
Protocol: (§5) Using the Ussing chamber technique, secretory responses evoked by veratridine (a nerve stimulant, 1×10^−5M) were assessed and expressed as % response to carbachol (1×10−5M).
as §3, §4

[4] = test system: mucosa-submucosa preparations; assay: Ussing chamber, secretory response to carbachol (ΔIsc), TNBS colitis rats; conditions: THC alone, data not shown
Protocol: as §5, §3, §4

SMILES	MDS, mean ([1]; CBD 5 mg/kg i.p. once daily, vehicle 5.46)	MDS, mean ([1]; CBD 15 mg/kg i.p. once daily, vehicle 5.46)	MDS, mean ([1]; CBD 20 mg/kg i.p. once daily, vehicle 5.46)	MPO, mean ([2]; CBD 5 mg/kg i.p. once daily, vehicle 6.03) [ngHRP/mg protein]	MPO, mean ([2]; CBD 10 mg/kg i.p. once daily, vehicle 6.03) [ngHRP/mg protein]	MPO, mean ([2]; CBD 15 mg/kg i.p. once daily, vehicle 6.03) [ngHRP/mg protein]	MPO, mean ([2]; CBD 20 mg/kg i.p. once daily, vehicle 6.03) [ngHRP/mg protein]	effect on MPO across doses ([2]; CBD 5, 10, 15 and 20 mg/kg i.p.)	MDS, mean ([1]; THC 5 mg/kg i.p. once daily, vehicle 6.00)	MDS, mean ([1]; THC 20 mg/kg i.p. once daily, vehicle 6.00)	dose-response relationship on MDS ([1]; THC 5, 10 and 20 mg/kg i.p.)	MPO, mean ([2]; THC 5 mg/kg i.p. once daily, vehicle 3.35) [ngHRP/mg protein]	secretory response to nerve stimulation ([3]; THC 10 mg/kg i.p. alone, expressed as % response to carbachol, vehicle 24.4±8.2)	secretory responses to nerve stimulation ([3]; THC alone, data not shown)	responses to carbachol [4]
C=C(C)[C@@H]1CCC(C)=C[C@H]1c1c(O)cc(CCCCC)cc1O [CBD, cannabidiol]	6.75	5.60	4.60	5.38	4.65	4.00	2.68	reduced MPO in a dose dependent manner, but the effect was not significant							
CCCCCc1cc(O)c2c(c1)OC(C)(C)[C@@H]1CCC(C)=C[C@@H]21 [THC, tetrahydrocannabinol]									6.5	4.67	bell-shaped pattern	4.29	30.3±7.5	did not affect	not significantly increased
